Where two headings read alike, the source gives them in different places.
Tests used:
[1] = Pharmacokinetic studies: plasma levels of PMM, TMM and TRIMM by gas liquid chromatography; assay type: in vivo, man; settings: for Detection as PMM metabolite in plasma / Quantity of metabolite in plasma: after i.v. PMM; for Detection as PMM metabolite in plasma: patients studied; for Plasma concentration relative to parent drug: 2 h after the end of the infusion; for half-life: intravenous
Description: (§1) Br. J. Cancer (1983), 47, 027-033 Pentamethylmelamine (PMM): Phase I clinical and pharmacokinetic studies J.R.F. Muindi*, D.R. Newellt, I.E. Smith* & K.R. Harrapt *Division of Medicine, Institute of Cancer Research and Royal Marsden Hospital, and the tDepartment of Biochemical Pharmacology, Institute of Cancer Research, Sutton, Surrey. […] PMM has been administered as an intravenous infusion to 17 patients in a Phase I clinical trial. […] In the present study the results of the Phase I clinical evaluation of PMM at the Royal Marsden Hospital are reported. In addition to the clinical assessment of patients, pharmacokinetic studies were also performed. […] (Broggini et al., 1981; Morimoto et al., 1980; Ames et al., 1979; Casper et al., 1981; Idhe et al., 1981; Benvenuto et al., 1981; Rutty et al., 1982). […] The mechanism of action of N-methylolmelamines is, however, still uncertain. To ascertain the rate and extent of PMM metabolism in man, plasma levels of the parent drug and the first two products of oxidative N- demethylation i.e. N2,N2,N4,N6-tetramethyl- melamine (TMM) and N2,N4,N6-trimethylmelamine (TRIMM) were measured (Figure 2). […] Materials and methods Patient selection The patients entered in the PMM Phase I clinical study were all under the care of the Royal Marsden Hospital. […] Additional criteria required for eligibility to enter into the study included: WBC and platelet count > 3000 uM I-' and > 100,000 pM 11 respectively; blood urea and serum creatinine < 8 mM ,M I1- and < 106 pM 1 respectively. None of the patients had received cancer chemotherapy or radiotherapy during the 3-week period preceding their entry into the study. […] The treatment protocol was approved by the Ethical Committee of the Royal Marsden Hospital and informed consent was obtained from all patients prior to entry into the study. […] It was supplied by Prof. W.C.J. Ross of the Chester Beatty Research Institute, London, as a white crystalline powder. PMM (2mg ml-') was infused intravenously as a 2% ethanol 5% dextrose solution after micropore (0.22 pm) filtration. All formulated PMM infusions were used within 24h of preparation, as a sterility precaution. PMM was initially given at a dose of […] and the dose escalated to 1300mgm-2 according to a modified Fibonacci scheme (Table II). At higher PMM doses, requiring large infusion volumes, the infusion time was extended from 1 to 4 h. No dose escalation was TRIMM CH3 Nc"N H 11 H Ii N N H CH3 HCHO 1. carried out in the same patient.

[2] = oral HMM 120-300 mg m-2, n = 9 (9/11 patients), mean + SEM; ref D'Incalci et al. (1978); cited from earlier work
[3] = system: patients with malignant tumours; experiment: Phase I clinical evaluation of toxicity of PMM given as intravenous infusion; assay type: in vivo, man; parameters: key to Nausea/vomiting Intensity: Mild: Vomiting once or twice during the infusion and requiring no anti- emetics was classified as mild; Moderate: vomiting that persisted up to 6 h after infusion and requiring a maximum administration of two courses of anti- emetics was regarded as moderate; Severe: Vomiting was classified as severe if it continued up to 24 h after PMM infusion and/or could only be controlled partially by repeated doses of anti-emetics; settings: for Nausea/vomiting Frequency: per courses
Description: as §1

malignant tumours = experiment: Tumour response in the Phase I trial; assay type: in vivo, man
Description: Br. J. Cancer (1983), 47, 027-033 Pentamethylmelamine (PMM): Phase I clinical and pharmacokinetic studies J.R.F. Muindi*, D.R. Newellt, I.E. Smith* & K.R. Harrapt *Division of Medicine, Institute of Cancer Research and Royal Marsden Hospital, and the tDepartment of Biochemical Pharmacology, Institute of Cancer Research, Sutton, Surrey. […] PMM has been administered as an intravenous infusion to 17 patients in a Phase I clinical trial. […] In the present study the results of the Phase I clinical evaluation of PMM at the Royal Marsden Hospital are reported. In addition to the clinical assessment of patients, pharmacokinetic studies were also performed. […] (Broggini et al., 1981; Morimoto et al., 1980; Ames et al., 1979; Casper et al., 1981; Idhe et al., 1981; Benvenuto et al., 1981; Rutty et al., 1982). […] The mechanism of action of N-methylolmelamines is, however, still uncertain. To ascertain the rate and extent of PMM metabolism in man, plasma levels of the parent drug and the first two products of oxidative N- demethylation i.e. N2,N2,N4,N6-tetramethyl- melamine (TMM) and N2,N4,N6-trimethylmelamine (TRIMM) were measured (Figure 2). […] Materials and methods Patient selection The patients entered in the PMM Phase I clinical study were all under the care of the Royal Marsden Hospital. […]

[4] = parameters: method as in Cumber & Ross, 1977; settings: compared with N2,N4,N6-trimethyl-N2,N4,N6-trimethylolmelamine; ref Cumber & Ross, 1977; cited from earlier work
[5] = system: experimental tumour test systems; parameters: method as in earlier work; settings: a number of experimental tumour test systems, ref Cumber & Ross, 1977, Connors et al., Goldin et al., 1981; cited from earlier work
[6] = parameters: method as in Rutty et al., 1982; settings: patients of this trial, not detectable; ref Rutty et al., 1982; cited from earlier work
[7] = parameters: method as in Rutty et al., 1982; settings: rats; ref Rutty et al., 1982; cited from earlier work
[8] = parameters: method as in Rutty et al., 1982; settings: mice; ref Rutty et al., 1982; cited from earlier work
[9] = parameters: method as in Ames et al. (1979); settings: rabbits, independent of the route (i.v. and oral); ref Ames et al. (1979); cited from earlier work
patients = settings: cited from earlier work
[10] = patient eight, PMM dose 300 mg m-2 i.v., hepatic function abnormal
[11] = patient five, PMM dose 200 mg m-2 i.v., hepatic function abnormal
[12] = patient four, PMM dose 200 mg m-2 i.v., hepatic function normal
[13] = patient one, PMM dose 300 mg m-2 i.v., hepatic function normal
[14] = patient seven, PMM dose 500 mg m-2 i.v., hepatic function normal
[15] = patient six, PMM dose 100 mg m-2 i.v., hepatic function normal
[16] = patient three, PMM dose 500 mg m-2 i.v., hepatic function abnormal
[17] = patient two, PMM dose 100 mg m-2 i.v., hepatic function normal
[18] = patients with normal liver function

For CNc1nc(N)nc(NC)n1 [N2,N4-dimethylmelamine], the “Detection as PMM metabolite in plasma” value [1] was “observed”.

For CNc1nc(NC)nc(NC)n1 [TRIMM, N2,N4,N6-trimethylmelamine], the “Detection as PMM metabolite in plasma” value [1] was “detected”, the “Area under the plasma conc. v. time curve” value (from here on “Area”) [1, 10] was 627 IM x min and the “Area” value [1, 11] was 1438 IM x min. For the same compound, the “Area” value [1, 12] was 1070 IM x min, the “Area” value [1, 13] was 4091 IM x min and the “Area” value [1, 14] was 3710 IM x min. For the same compound, the “Area” value [1, 15] was 573 IM x min, the “Area” value [1, 16] was 7995 IM x min and the “Area” value [1, 17] was 189 IM x min. For the same compound, the “Plasma concentration relative to parent drug” value [1, 18] was “greater concentrations than the parent drug”.

In the case of CN(C)c1nc(N)nc(N(C)C)n1 [N2,N2,N4,N4-tetramethylmelamine], the “Quantity of metabolite in plasma” value [1] was “minor quantities”.

For CN(C)c1nc(N(C)C)nc(N(C)C)n1 [HMM, hexamethylmelamine], the “HMM AUC 0-12h” value [2] is given as 763 +163 iMxmin.

With CNc1nc(NC)nc(N(C)C)n1 [TMM, N2,N2,N4,N6-tetramethylmelamine] the “Detection as PMM metabolite in plasma” value [1] was “detected”, the “Area” value [1, 10] was 2121 IM x min and the “Area” value [1, 11] was 1804 IM x min. The “Area” value [1, 12] was 397 IM x min, the “Area” value [1, 13] was 3697 IM x min and the “Area” value [1, 14] was 2693 IM x min. The “Area” value [1, 15] was 204 IM x min, the “Area” value [1, 16] was 6206 IM x min and the “Area” value [1, 17] was 151 IM x min. For the same compound, the “Plasma concentration relative to parent drug” value [1, 18] was “greater concentrations than the parent drug”.

With CNc1nc(N(C)C)nc(N(C)C)n1 [PMM, Pentamethylmelamine] the “Nausea/vomiting Intensity” value ([3]; 100 mg m-2 i.v. infusion) was “Mild”, the “Nausea/vomiting Frequency” value ([3]; 100 mg m-2 i.v. infusion, 3 patients) was 0/7 and the “Nausea/vomiting Frequency” value ([3]; 200 mg m-2 i.v. infusion, 3 patients) was 1/7. For the same compound, the “Nausea/vomiting Intensity” value ([3]; 300 mg m-2 i.v. infusion) was “Moderate (vomiting that persisted up to 6 h after infusion and requiring a maximum administration of two courses of anti- emetics was regarded as moderate)”, the “Nausea/vomiting Frequency” value ([3]; 300 mg m-2 i.v. infusion, 3 patients) was 2/5 and the “Patients with nausea and vomiting” value ([3]; 500 mg m-2 and above) was “all patients”. For the same compound, the “Nausea/vomiting Frequency” value ([3]; 500 mg m-2 i.v. infusion, 3 patients) was 8/8, the “Nausea/vomiting Intensity” value ([3]; 800 mg m-2 i.v. infusion) was “Severe (Vomiting was classified as severe if it continued up to 24 h after PMM infusion and/or could only be controlled partially by repeated doses of anti-emetics)” and the “Nausea/vomiting Frequency” value ([3]; 800 mg m-2 i.v. infusion, 3 patients) was 7/7. The “Duration of nausea and vomiting” value ([3]; 1300 mg m-2 i.v. infusion) was > 24 h, the “Nausea/vomiting Frequency” value ([3]; 1300 mg m-2 i.v. infusion, 2 patients) was 4/4 and the “Severity of nausea and vomiting” value ([3]; 1300 mg m-2 i.v. infusion, poorly controlled by anti-emetics) was “severe”. For the same compound, the Haematological toxicity ([3]; 100-1300 mg m-2 i.v. infusion) was “not observed”, the Hepatic toxicity ([3]; 100-1300 mg m-2 i.v. infusion) was “not observed” and the Renal toxicity ([3]; 100-1300 mg m-2 i.v. infusion) was “not observed”. For the same compound, the “Acute neurological side effects” value ([3]; doses below 500 mg m-2, not assessable at higher doses because of anti-emetics) was “no neurological side effects were observed”, the Dose-limiting toxicities ([3]; i.v. infusion 100-1300 mg m-2, 3 weekly) was “nausea and vomiting” and the “Pruritic erythematous maculopapular skin rashes” value ([3]; one patient at 200 mg m-2 (2nd course), one at 1300 mg m-2, other medications possibly responsible) was “Two patients”. The “Correlation (r) of plasma levels at the end of the infusion with dose” value ([1]; 1 h infusion, 100-300 mg m-2, P = 0.005) was 0.94, the half-life ([1]; human, plasma, 100 mg m-2, patient six, 100 mg m-2, hepatic function normal, value + s.e., read-out: PMM plasma t1/2 (overall elimination phase)) was 54.1 min and the half-life ([1]; human, plasma, 200 mg m-2, patient five, 200 mg m-2, hepatic function abnormal, value + s.e., read-out: PMM plasma t1/2 (overall elimination phase)) was 135 min. The half-life ([1]; human, plasma, 300 mg m-2, patient eight, 300 mg m-2, hepatic function abnormal, value + s.e., read-out: PMM plasma t1/2 (overall elimination phase)) was 153 min, the half-life ([1]; human, plasma, 300 mg m-2, patient one, 300 mg m-2, hepatic function normal, value + s.e., read-out: PMM plasma t1/2 (overall elimination phase)) was 72.8 min and the half-life ([1]; human, plasma, 500 mg m-2, patient seven, 500 mg m-2, hepatic function normal, value + s.e., read-out: PMM plasma t1/2 (overall elimination phase)) was 68.6 min. It also gave a half-life ([1]; human, plasma, 500 mg m-2, patient three, 500 mg m-2, hepatic function abnormal, value + s.e., read-out: PMM plasma t1/2 (overall elimination phase)) of 127 min, a half-life ([1]; human, plasma, patients with hepatic disease and abnormal liver function tests, mean + SEM, n = 3, P = 0.002 vs normal, read-out: PMM t1/2, group mean) of 138 min and a half-life ([1]; human, plasma, patients with normal liver function, mean + SEM, n = 3, read-out: PMM t1/2, group mean) of 65 min. For the same compound, the AUC(0-t) ([1]; human, plasma, iv, i.v. PMM 100-300 mg m-2, n = 6, mean + SEM, read-out: PMM AUC 0-12h (converted)) was 72.3 µM·h, the “Area” value [1, 10] was 6019 IM x min and the “Area” value [1, 11] was 7175 IM x min. The “PMM pharmacokinetics in the disposition phase (order)” value ([1]; patient four, 200 mg m-2, hepatic function normal) was “not first-order”, the “Area” value [1, 12] was 1694 IM x min and the “Area” value [1, 13] was 6232 IM x min. The “Area” value [1, 14] was 3940 IM x min, the “Area” value [1, 15] was 734 IM x min and the “Area” value [1, 16] was 7179 IM x min. For the same compound, the “PMM pharmacokinetics in the disposition phase (order)” value ([1]; patient two, 100 mg m-2, hepatic function normal) was “not first-order”, the “Area” value [1, 17] was 317 IM x min and the Minor response (malignant tumours; 500 mg m-2, patient with squamous cell carcinoma of bronchus) was “One minor response”. The “Complete or partial responses” value (malignant tumours; 17 patients, 100-1300 mg m-2) was “No complete or partial responses”, the Chemical stability [4] was “greater chemical stability” and the “Activity relative to HMM” value [5] was “equivalent activity”. The “PMM metabolites capable of releasing formaldehyde in plasma” value [6] was < 50 µM, the “PMM metabolites capable of releasing formaldehyde in plasma” value [7] was 211 yM and the PMM metabolites capable of releasing formaldehyde in plasma [8] was 563 to 773 µM. For the same compound, the “Urinary excretion of drug-derived material” value [9] was 75-85 % dose admin, the Haematological toxicity (patients; 1.2 g/m2/day x 10, ref Goldberg et al. (1980)) was “reproducibly induced haematological toxicity” and the “Partial response among all patients who have received PMM” value (patients; of 173 patients, ref Casper et al., 1981) was 1. For the same compound, the “Minor responses among all patients who have received PMM” value (patients; of 173 patients, ref Van Echo et al., 1980, Ajani et al., 1982 and the present study) was 7.

In the case of CNc1nc(N)nc(N(C)C)n1 [N2,N2,N4-trimethylmelamine], the “Quantity of metabolite in plasma” value [1] was “minor quantities”.

— publication PMC2011259, “Pentamethylmelamine (PMM): Phase I clinical and pharmacokinetic studies” (British Journal of Cancer, 1983)
